{
  "source": "patent US20230322723A1",
  "about": "“COMPOUNDS FOR SUPPRESSING EGFR MUTANT CANCER AND PHARMACEUTICAL USE THEREOF” (J2H BIOTECH INC., priority 2020, published 2023)",
  "key": {"EGFR^del19+T790M+C797S": {"test_system": "EGFR^del19+T790M+C797S", "test": "EGFR protein degradation test (Western blot) in Ba/F3 cells expressing mutant EGFR del19+T790M+C797S (DTC)", "assay_type": "cell-based", "details": "compounds at 0.1 μM and 1 μM, 24 hours, Western blot with EGFR antibody", "procedure": "(§1) The ability of the compounds of the present invention to degrade the mutant EGFR protein was confirmed in Ba/F3 cells expressing normal EGFR, mutant EGFR^del19+T790M+C797S or mutant EGFR^L858R+T790M+C797S. A Western blot test using the EGFR antibody was performed.\n(§2) Specifically, Ba/F3 cells expressing EGFR were cultured in RPMI 1640 (Gibco, NY, USA) containing 10% fetal bovine serum (FBS, Gibco, NY, USA). Cells expressing normal EGFR, mutant EGFR^del19+T790M+C797S or mutant EGFR^L858R+T790M+C797S were treated with the compounds of the present invention at concentrations of 0.1 μM and 1 μM, respectively, for 24 hours. After that, it was washed twice with phosphate buffered saline (PBS) and SDS-PAGE was performed with 30 μg of cell lysate. After the protein separated on the gel was transferred to a nitrocellulose membrane, the expression level of the EGFR protein was confirmed using an EGFR antibody (Santa Cruz biotechnology, Santacruz, CA, USA). EGFR bands separated by Western blotting were quantitatively analyzed with Fluo-S MultiImager (Bio-Rad, Hercules, CA, USA)."}, "EGFR^L858R+T790M+C797S": {"molecular_target": "T1, EGFR^L858R+T790M+C797S (Homo sapiens, UniProt P00533, C797S/L858R/T790M)", "T1 construct": "expressed in transfected cells; host or cells: Ba/F3", "T1 sequence (P00533 25-1210 T790M/C797S/L858R)": "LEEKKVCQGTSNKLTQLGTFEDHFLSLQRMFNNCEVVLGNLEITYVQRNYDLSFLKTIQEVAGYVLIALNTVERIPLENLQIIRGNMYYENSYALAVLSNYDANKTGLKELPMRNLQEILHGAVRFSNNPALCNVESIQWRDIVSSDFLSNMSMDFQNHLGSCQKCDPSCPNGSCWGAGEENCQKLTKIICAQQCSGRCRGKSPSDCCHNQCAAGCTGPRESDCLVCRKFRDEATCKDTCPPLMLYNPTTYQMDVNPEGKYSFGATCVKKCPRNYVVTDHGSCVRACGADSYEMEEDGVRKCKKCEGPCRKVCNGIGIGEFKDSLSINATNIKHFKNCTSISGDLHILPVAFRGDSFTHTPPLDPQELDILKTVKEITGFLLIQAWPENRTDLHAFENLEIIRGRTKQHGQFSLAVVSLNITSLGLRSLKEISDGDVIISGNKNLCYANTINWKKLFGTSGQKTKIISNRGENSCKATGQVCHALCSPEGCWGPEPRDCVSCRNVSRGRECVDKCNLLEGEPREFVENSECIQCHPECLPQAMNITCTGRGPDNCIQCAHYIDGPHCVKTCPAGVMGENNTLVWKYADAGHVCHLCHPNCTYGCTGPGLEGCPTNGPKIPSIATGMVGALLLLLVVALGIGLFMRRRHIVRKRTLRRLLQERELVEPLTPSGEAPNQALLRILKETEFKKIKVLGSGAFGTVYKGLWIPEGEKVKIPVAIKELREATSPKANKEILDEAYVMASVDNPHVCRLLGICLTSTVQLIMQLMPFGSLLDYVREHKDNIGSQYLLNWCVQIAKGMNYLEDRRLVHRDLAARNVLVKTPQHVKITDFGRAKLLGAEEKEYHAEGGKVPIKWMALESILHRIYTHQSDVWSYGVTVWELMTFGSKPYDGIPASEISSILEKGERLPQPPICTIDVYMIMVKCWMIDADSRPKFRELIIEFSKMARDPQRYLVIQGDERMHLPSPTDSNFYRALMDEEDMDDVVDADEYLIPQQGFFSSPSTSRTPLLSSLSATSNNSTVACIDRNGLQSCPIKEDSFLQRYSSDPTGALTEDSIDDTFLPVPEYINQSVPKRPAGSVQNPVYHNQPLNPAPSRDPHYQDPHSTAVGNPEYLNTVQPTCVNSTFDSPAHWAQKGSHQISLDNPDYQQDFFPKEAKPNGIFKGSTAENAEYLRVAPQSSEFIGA", "test": "EGFR protein degradation test (Western blot) in Ba/F3 cells expressing mutant EGFR L858R+T790M+C797S (LTC)", "assay_type": "cell-based", "details": "compounds at 0.1 μM and 1 μM, 24 hours, Western blot with EGFR antibody", "procedure": "as §1, §2"}},
  "data": [
    {"molecule": "Cc1ncsc1-c1ccc(CNC(=O)[C@H]2C[C@@H](O)CN2C(=O)[C@@H](NC(=O)CCCCN2CCN(C3CCN(c4ccc(Nc5ncc(Cl)c(Nc6ccccc6N(C)S(C)(=O)=O)n5)cc4F)CC3)CC2)C(C)(C)C)cc1", "note": "[Compound 18, (2R,4R)-1-((S)-2-(5-(4-(1-(4-((5-chloro-4-((2-(N-methylmethylsulfonamido)phenyl)amino)pyrimidin-2-yl)amino)-2-fluorophenyl)piperidin-4-yl)piperazin-1-yl)pentanamido)-3,3-dimethylbutanoyl)-4-hydroxy-N-(4-(4-methylthiazol-5-yl)benzyl)pyrrolidin-2-carboxamide]", "values": [
      {"measurement": "DTC (EGFR^del19+T790M+C797S) protein degradation", "setting": "EGFR^del19+T790M+C797S", "value": "− (Protein degradation < 20%)"},
      {"measurement": "LTC (EGFR^L858R+T790M+C797S) protein degradation", "setting": "EGFR^L858R+T790M+C797S", "value": "− (Protein degradation < 20%)"}
    ]},
    {"molecule": "Cc1ncsc1-c1ccc(CNC(=O)[C@H]2C[C@@H](O)CN2C(=O)[C@@H](NC(=O)CN2CCN(C3CCN(c4ccc(Nc5ncc(Cl)c(Nc6ccccc6N(C)S(C)(=O)=O)n5)cc4F)CC3)CC2)C(C)(C)C)cc1", "note": "[Compound 19, (2R,4R)-1-((S)-2-(2-(4-(1-(4-((5-chloro-4-((2-(N-methylmethylsulfonamido)phenyl)amino)pyrimidin-2-yl)amino)-2-fluorophenyl)piperidin-4-yl)piperazin-1-yl)acetamido)-3,3-dimethylbutanoyl)-4-hydroxy-N-(4-(4-methylthiazol-5-yl)benzyl)pyrrolidin-2-carboxamide]", "values": [
      {"measurement": "DTC (EGFR^del19+T790M+C797S) protein degradation", "setting": "EGFR^del19+T790M+C797S", "value": "++ (Protein degradation > 80%)"},
      {"measurement": "LTC (EGFR^L858R+T790M+C797S) protein degradation", "setting": "EGFR^L858R+T790M+C797S", "value": "+ (Protein degradation 20~80%)"}
    ]},
    {"molecule": "COc1cc(N2CCC(N3CCN(CC(=O)Nc4cccc5c4C(=O)N(C4CCC(=O)NC4=O)C5=O)CC3)CC2)ccc1Nc1ncc(Cl)c(Nc2ccccc2N(C)S(C)(=O)=O)n1", "note": "(centres unmarked) [Compound 21, 2-(4-(1-(4-((5-chloro-4-((2-(N-methylmethylsulfonamido)phenyl)amino)pyrimidin-2-yl)amino)-3-methoxyphenyl)piperidin-4-yl)piperazin-1-yl)-N-(2-(2,6-dioxopiperidin-3-yl)-1,3-dioxoisoindolin-4-yl)acetamide]", "values": [
      {"measurement": "DTC (EGFR^del19+T790M+C797S) protein degradation", "setting": "EGFR^del19+T790M+C797S", "value": "− (Protein degradation < 20%)"},
      {"measurement": "LTC (EGFR^L858R+T790M+C797S) protein degradation", "setting": "EGFR^L858R+T790M+C797S", "value": "− (Protein degradation < 20%)"}
    ]},
    {"molecule": "COc1cc(N2CCC(CN3CCN(CC(=O)Nc4cccc5c4C(=O)N(C4CCC(=O)NC4=O)C5=O)CC3)CC2)ccc1Nc1ncc(Cl)c(Nc2ccccc2N(C)S(C)(=O)=O)n1", "note": "(centres unmarked) [Compound 23, 2-(4-((1-(4-((5-chloro-4-((2-(N-methylmethylsulfonamido)phenyl)amino)pyrimidin-2-yl)amino)-3-methoxyphenyl)piperidin-4-yl)methyl)piperazin-1-yl)-N-(2-(2,6-dioxopiperidin-3-yl)-1,3-dioxoisoindolin-4-yl)acetamide]", "values": [
      {"measurement": "DTC (EGFR^del19+T790M+C797S) protein degradation", "setting": "EGFR^del19+T790M+C797S", "value": "− (Protein degradation < 20%)"},
      {"measurement": "LTC (EGFR^L858R+T790M+C797S) protein degradation", "setting": "EGFR^L858R+T790M+C797S", "value": "− (Protein degradation < 20%)"}
    ]},
    {"molecule": "COc1cc(N2CCN(CC3CCN(CC(=O)Nc4cccc5c4C(=O)N(C4CCC(=O)NC4=O)C5=O)CC3)CC2)ccc1Nc1ncc(Cl)c(Nc2ccccc2N(C)S(C)(=O)=O)n1", "note": "(centres unmarked) [Compound 25, 2-(4-((4-(4-((5-chloro-4-((2-(N-methylmethylsulfonamido)phenyl)amino)pyrimidin-2-yl)amino)-3-methoxyphenyl)piperazin-1-yl)methyl)piperidin-1-yl)-N-(2-(2,6-dioxopiperidin-3-yl)-1,3-dioxoisoindolin-4-yl)acetamide]", "values": [
      {"measurement": "DTC (EGFR^del19+T790M+C797S) protein degradation", "setting": "EGFR^del19+T790M+C797S", "value": "− (Protein degradation < 20%)"},
      {"measurement": "LTC (EGFR^L858R+T790M+C797S) protein degradation", "setting": "EGFR^L858R+T790M+C797S", "value": "− (Protein degradation < 20%)"}
    ]},
    {"molecule": "COc1cc(N2CCC(CN3CCC(C(=O)N[C@H](C(=O)N4C[C@H](O)C[C@H]4C(=O)NCc4ccc(-c5scnc5C)cc4)C(C)(C)C)CC3)CC2)ccc1Nc1ncc(Cl)c(Nc2ccccc2N(C)S(C)(=O)=O)n1", "note": "[Compound 29, 1-((1-(4-((5-chloro-4-((2-(N-methylmethylsulfonamido)phenyl)amino)pyrimidin-2-yl)amino)-3-methoxyphenyl)piperidin-4-yl)methyl)-N—((S)-1-((2S,4R)-4-hydroxy-2-((4-(4-methylthiazol-5-yl)benzyl)carbamoyl)pyrrolidin-1-yl)-3,3-dimethyl-1-oxobutan-2-yl)piperidin-4-carboxamide]", "values": [
      {"measurement": "DTC (EGFR^del19+T790M+C797S) protein degradation", "setting": "EGFR^del19+T790M+C797S", "value": "− (Protein degradation < 20%)"},
      {"measurement": "LTC (EGFR^L858R+T790M+C797S) protein degradation", "setting": "EGFR^L858R+T790M+C797S", "value": "− (Protein degradation < 20%)"}
    ]},
    {"molecule": "COc1cc(N2CCC3(CCN(CCC(=O)Nc4cccc5c4C(=O)N(C4CCC(=O)NC4=O)C5=O)CC3)CC2)ccc1Nc1ncc(Cl)c(Nc2ccccc2N(C)S(C)(=O)=O)n1", "note": "(centres unmarked) [Compound 30, 3-(9-(4-((5-chloro-4-((2-(N-methylmethylsulfonamido)phenyl)amino)pyrimidin-2-yl)amino)-3-methoxyphenyl)-3,9-diazaspiro[5,5]undecan-3-yl)-N-(2-(2,6-dioxopiperidin-3-yl)-1,3-dioxoisoindolin-4-yl)propanamide]", "values": [
      {"measurement": "DTC (EGFR^del19+T790M+C797S) protein degradation", "setting": "EGFR^del19+T790M+C797S", "value": "− (Protein degradation < 20%)"},
      {"measurement": "LTC (EGFR^L858R+T790M+C797S) protein degradation", "setting": "EGFR^L858R+T790M+C797S", "value": "− (Protein degradation < 20%)"}
    ]},
    {"molecule": "COc1cc(N2CC3(CN(CCC(=O)Nc4cccc5c4C(=O)N(C4CCC(=O)NC4=O)C5=O)C3)C2)ccc1Nc1ncc(Cl)c(Nc2ccccc2N(C)S(C)(=O)=O)n1", "note": "(centres unmarked) [Compound 32, 3-(6-(4-((5-chloro-4-((2-(N-methylmethylsulfonamido)phenyl)amino)pyrimidin-2-yl)amino)-3-methoxyphenyl)-2,6-diazaspiro[3,3]heptan-2-yl)-N-(2-(2,6-dioxopiperidin-3-yl)-1,3-dioxoisoindolin-4-yl)propanamide]", "values": [
      {"measurement": "DTC (EGFR^del19+T790M+C797S) protein degradation", "setting": "EGFR^del19+T790M+C797S", "value": "− (Protein degradation < 20%)"},
      {"measurement": "LTC (EGFR^L858R+T790M+C797S) protein degradation", "setting": "EGFR^L858R+T790M+C797S", "value": "− (Protein degradation < 20%)"}
    ]},
    {"molecule": "COc1cc(N2CCN(CCOC3CN(c4ccc5c(c4)C(=O)N(C4CCC(=O)NC4=O)C5=O)C3)CC2)ccc1Nc1ncc(Cl)c(Nc2ccccc2N(C)S(C)(=O)=O)n1", "note": "(centres unmarked) [Compound 33, N-(2-((5-chloro-2-((4-(4-(2-((1-(2-(2,6-dioxopiperidin-3-yl)-1,3-dioxoisoindolin-5-yl)azetidin-3-yl)oxy)ethyl)piperazin-1-yl)-2-methoxyphenyl)amino)pyrimidin-4-yl)amino)phenyl)-N-methylmethanesulfonamide]", "values": [
      {"measurement": "DTC (EGFR^del19+T790M+C797S) protein degradation", "setting": "EGFR^del19+T790M+C797S", "value": "+ (Protein degradation 20~80%)"},
      {"measurement": "LTC (EGFR^L858R+T790M+C797S) protein degradation", "setting": "EGFR^L858R+T790M+C797S", "value": "− (Protein degradation < 20%)"}
    ]},
    {"molecule": "COc1cc(N2CCN(CCOC3CCN(c4ccc5c(c4)C(=O)N(C4CCC(=O)NC4=O)C5=O)CC3)CC2)ccc1Nc1ncc(Cl)c(Nc2ccccc2N(C)S(C)(=O)=O)n1", "note": "(centres unmarked) [Compound 34, N-(2-((5-chloro-2-((4-(4-(2-((1-(2-(2,6-dioxopiperidin-3-yl)-1,3-dioxoisoindolin-5-yl)piperidin-4-yl)oxy)ethyl)piperazin-1-yl)-2-methoxyphenyl)amino)pyrimidin-4-yl)amino)phenyl)-N-methylmethanesulfonamide]", "values": [
      {"measurement": "DTC (EGFR^del19+T790M+C797S) protein degradation", "setting": "EGFR^del19+T790M+C797S", "value": "− (Protein degradation < 20%)"},
      {"measurement": "LTC (EGFR^L858R+T790M+C797S) protein degradation", "setting": "EGFR^L858R+T790M+C797S", "value": "− (Protein degradation < 20%)"}
    ]},
    {"molecule": "COc1cc(N2CCC(CN3CC(C(=O)N[C@H](C(=O)N4C[C@H](O)C[C@H]4C(=O)NCc4ccc(-c5scnc5C)cc4)C(C)(C)C)C3)CC2)ccc1Nc1ncc(Cl)c(Nc2ccccc2N(C)S(C)(=O)=O)n1", "note": "[Compound 38, (2S,4R)-1-((S)-2-(1-((1-(4-((5-chloro-4-((2-(N-methylmethylsulfonamido)phenyl)amino)pyrimidin-2-yl)amino)-3-methoxyphenyl)piperidin-4-yl)methyl)azetidin-3-carboxamido)-3,3-dimethylbutanoyl)-4-hydroxy-N-(4-(4-methylthiazol-5-yl)benzyl)pyrrolidin-2-carboxamide]", "values": [
      {"measurement": "DTC (EGFR^del19+T790M+C797S) protein degradation", "setting": "EGFR^del19+T790M+C797S", "value": "− (Protein degradation < 20%)"},
      {"measurement": "LTC (EGFR^L858R+T790M+C797S) protein degradation", "setting": "EGFR^L858R+T790M+C797S", "value": "− (Protein degradation < 20%)"}
    ]},
    {"molecule": "CN(c1ccccc1Nc1nc(Nc2ccc(N3CCN(CCN4CC(Oc5cccc6c5CN(C5CCC(=O)NC5=O)C6=O)C4)CC3)c(F)c2)ncc1Cl)S(C)(=O)=O", "note": "(centres unmarked) [Compound 39, N-(2-((5-chloro-2-((4-(4-(2-(3-((2-(2,6-dioxopiperidin-3-yl)-1-oxoisoindolin-4-yl)oxy)azetidin-1-yl)ethyl)piperazin-1-yl)-3-fluorophenyl)amino)pyrimidin-4-yl)amino)phenyl)-N-methylmethanesulfonamide]", "values": [
      {"measurement": "DTC (EGFR^del19+T790M+C797S) protein degradation", "setting": "EGFR^del19+T790M+C797S", "value": "+ (Protein degradation 20~80%)"},
      {"measurement": "LTC (EGFR^L858R+T790M+C797S) protein degradation", "setting": "EGFR^L858R+T790M+C797S", "value": "+ (Protein degradation 20~80%)"}
    ]},
    {"molecule": "CN(c1ccccc1Nc1nc(Nc2ccc(N3CCN(CCOC4CN(c5ccc6c(c5)C(=O)N(C5CCC(=O)NC5=O)C6=O)C4)CC3)c(F)c2)ncc1Cl)S(C)(=O)=O", "note": "(centres unmarked) [Compound 40, N-(2-((5-chloro-2-((4-(4-(2-((1-(2-(2,6-dioxopiperidin-3-yl)-1,3-dioxoisoindolin-5-yl)azetidin-3-yl)oxy)ethyl)piperazin-1-yl)-3-fluorophenyl)amino)pyrimidin-4-yl)amino)phenyl)-N-methylmethanesulfonamide]", "values": [
      {"measurement": "DTC (EGFR^del19+T790M+C797S) protein degradation", "setting": "EGFR^del19+T790M+C797S", "value": "+ (Protein degradation 20~80%)"},
      {"measurement": "LTC (EGFR^L858R+T790M+C797S) protein degradation", "setting": "EGFR^L858R+T790M+C797S", "value": "+ (Protein degradation 20~80%)"}
    ]}
  ]
}
